Experimental data published in ChEMBL document CHEMBL3784998, “Synthesis and biological evaluation ofd-gluconhydroximo-1,5-lactam and its oxime-substituted derivatives as pharmacological chaperones for the treatment of Gaucher disease” (Medchemcomm, 2016).
Changes are numbered by the printed parent chain. The source made the active and inactive calls. The calls are words filed in the database; no cut-off is given here.

Legend:
[1] = target: T1, Lysosomal acid glucosylceramidase (Homo sapiens, UniProt P04062); experiment: Competitive inhibition of human recombinant imiglucerase using 4-MU-beta-D-Glu as substrate at pH 5.2 after 30 mins by fluorometry based Lineweaver-Burk plot analysis
T1 sequence (P04062 whole entry): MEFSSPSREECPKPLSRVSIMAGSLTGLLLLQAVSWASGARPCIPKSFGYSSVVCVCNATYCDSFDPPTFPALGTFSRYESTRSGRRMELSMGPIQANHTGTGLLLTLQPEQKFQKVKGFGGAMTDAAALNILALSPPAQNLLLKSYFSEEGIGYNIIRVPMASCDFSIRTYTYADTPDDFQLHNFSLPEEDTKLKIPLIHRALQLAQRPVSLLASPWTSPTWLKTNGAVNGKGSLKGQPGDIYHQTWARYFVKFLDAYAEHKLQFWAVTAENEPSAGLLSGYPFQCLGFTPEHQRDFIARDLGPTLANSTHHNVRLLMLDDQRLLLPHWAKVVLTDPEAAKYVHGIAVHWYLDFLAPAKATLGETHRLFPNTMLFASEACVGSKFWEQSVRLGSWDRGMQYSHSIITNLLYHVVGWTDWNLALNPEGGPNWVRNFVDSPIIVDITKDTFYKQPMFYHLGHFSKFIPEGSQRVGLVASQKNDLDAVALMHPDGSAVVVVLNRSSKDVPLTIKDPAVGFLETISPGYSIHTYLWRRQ

Beta-galactosidase = Beta-galactosidase (Escherichia coli K-12, UniProt P00722); experiment: Inhibition of Escherichia coli beta-galactosidase
Alpha-galactosidase = Alpha-galactosidase (Coffea arabica, UniProt Q42656); experiment: Inhibition of green coffee bean alpha-galactosidase
[2] = target: T1, Lysosomal acid glucosylceramidase; experiment: Inhibition of human recombinant imiglucerase using 4-MU-beta-D-Glu as substrate at pH 7.0 after 30 mins by fluorometric analysis
[3] = target: T1, Lysosomal acid glucosylceramidase; experiment: Inhibition of human recombinant imiglucerase using 4-MU-beta-D-Glu as substrate at pH 5.2 after 30 mins by fluorometric analysis
[4] = Inhibition of almond beta glucosidase; parameters: species or system Prunus dulcis
[5] = system: T2, Lysosomal acid glucosylceramidase (Homo sapiens), P04062 [N409S]; experiment: Pharmacological chaperone activity at beta-glucocerebrosidase N370S mutant in Gaucher disease patient-derived lymphoblasts with GCase N370S mutant assessed as increase in enzyme activity at 3.125 to 100 uM after 3 days by fluorimetric analysis relative to control
T2 sequence (whole entry): T1 sequence (P04062 whole entry) with N409S

[6] = Cytotoxicity against wild type human CCC-ESF1 cells at 100 uM after 24 hrs by MTT assay; format: cell-based; settings: ccc-esf1, 24 h
[7] = system: T2, Lysosomal acid glucosylceramidase (Homo sapiens), P04062 [N409S]; experiment: Pharmacological chaperone activity at beta-glucocerebrosidase N370S mutant in Gaucher disease patient-derived lymphoblasts with GCase N370S mutant assessed as increase in enzyme activity at 10 uM after 3 days by fluorimetric analysis relative to control

Chain of Beta-galactosidase (P00722 whole entry): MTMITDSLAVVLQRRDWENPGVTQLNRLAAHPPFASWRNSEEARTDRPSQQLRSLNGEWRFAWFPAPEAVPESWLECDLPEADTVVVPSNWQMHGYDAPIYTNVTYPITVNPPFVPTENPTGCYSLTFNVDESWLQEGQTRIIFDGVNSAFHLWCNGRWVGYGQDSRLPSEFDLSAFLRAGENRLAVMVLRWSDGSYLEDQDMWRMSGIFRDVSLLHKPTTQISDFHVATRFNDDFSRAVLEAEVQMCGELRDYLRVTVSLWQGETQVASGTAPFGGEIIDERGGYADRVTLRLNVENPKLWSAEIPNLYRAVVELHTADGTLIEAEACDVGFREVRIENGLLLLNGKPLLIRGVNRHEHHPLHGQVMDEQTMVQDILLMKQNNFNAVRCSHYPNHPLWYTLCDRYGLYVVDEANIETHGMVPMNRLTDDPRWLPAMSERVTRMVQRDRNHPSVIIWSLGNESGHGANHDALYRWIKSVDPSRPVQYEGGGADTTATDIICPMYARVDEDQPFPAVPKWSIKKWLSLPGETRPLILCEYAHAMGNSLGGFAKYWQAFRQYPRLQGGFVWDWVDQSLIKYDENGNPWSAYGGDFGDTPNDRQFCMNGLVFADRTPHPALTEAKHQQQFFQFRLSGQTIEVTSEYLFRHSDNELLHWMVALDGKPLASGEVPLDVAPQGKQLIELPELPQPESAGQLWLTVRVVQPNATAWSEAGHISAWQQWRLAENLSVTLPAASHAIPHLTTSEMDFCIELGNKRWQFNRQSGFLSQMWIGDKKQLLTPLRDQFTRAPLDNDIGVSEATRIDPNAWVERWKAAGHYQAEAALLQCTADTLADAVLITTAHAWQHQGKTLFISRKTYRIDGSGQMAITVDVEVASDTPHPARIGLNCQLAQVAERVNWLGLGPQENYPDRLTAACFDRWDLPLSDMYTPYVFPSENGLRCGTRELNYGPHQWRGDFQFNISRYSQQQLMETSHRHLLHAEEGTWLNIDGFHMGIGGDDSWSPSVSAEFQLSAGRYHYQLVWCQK
Chain of Alpha-galactosidase (Q42656 whole entry): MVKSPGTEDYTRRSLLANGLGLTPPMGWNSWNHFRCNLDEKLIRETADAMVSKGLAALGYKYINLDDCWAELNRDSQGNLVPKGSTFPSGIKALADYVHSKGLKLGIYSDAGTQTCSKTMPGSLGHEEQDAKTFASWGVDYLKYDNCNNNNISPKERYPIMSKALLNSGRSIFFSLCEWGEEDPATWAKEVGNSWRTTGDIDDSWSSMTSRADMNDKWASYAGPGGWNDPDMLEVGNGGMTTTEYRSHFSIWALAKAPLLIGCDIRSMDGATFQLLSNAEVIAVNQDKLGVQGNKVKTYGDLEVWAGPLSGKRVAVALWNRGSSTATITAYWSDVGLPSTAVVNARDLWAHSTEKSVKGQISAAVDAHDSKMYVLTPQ

In the case of `CC(C)(C)NC(=O)O/N=C1\N[C@H](CO)[C@@H](O)[C@H](O)[C@H]1O`, the Ki [1] is reported as 30.1 µM, the IC50 (Beta-galactosidase) is reported as greater than 100 µM and the IC50 (Alpha-galactosidase) is reported as greater than 100 µM. The IC50 [2] was 21.5 µM, the IC50 [3] was 29.1 µM and the IC50 [4] was 46 µM. The fold change (FC) [5] was 1.3 and the Activity [6] was “Non-toxic”.
Compound `O=C(Nc1ccc2nsnc2c1)O/N=C1\N[C@H](CO)[C@@H](O)[C@H](O)[C@H]1O` has a Ki [1] of 6.38 µM, an IC50 (Beta-galactosidase) greater than 100 µM and an IC50 (Alpha-galactosidase) greater than 100 µM. The IC50 [2] was 12.5 µM, the IC50 [3] was 5.75 µM and the IC50 [4] was 6.21 µM. For the same compound, the fold change (FC) [5] was 1.23 and the Activity [6] was “Non-toxic”.
Compound `CCCCCCCCCN1C[C@H](O)[C@@H](O)[C@H](O)[C@H]1CO` has an IC50 (Beta-galactosidase) greater than 100 µM, an IC50 (Alpha-galactosidase) greater than 100 µM and an IC50 [4] greater than 100 µM. For the same compound, the Activity [6] was “Non-toxic”.
`O=C(Nc1cccc2ccccc12)O/N=C1\N[C@H](CO)[C@@H](O)[C@H](O)[C@H]1O` showed a Ki [1] of 7.94 µM, an IC50 (Beta-galactosidase) greater than 100 µM and an IC50 (Alpha-galactosidase) greater than 100 µM. It also gave an IC50 [2] of 1.43 µM, an IC50 [3] of 7.21 µM and an IC50 [4] of 10.7 µM. For the same compound, the fold change (FC) [5] was 1.47 and the Activity [6] was “Non-toxic”.
Work on `O=C(Nc1ccc(Oc2ccccc2)cc1)O/N=C1\N[C@H](CO)[C@@H](O)[C@H](O)[C@H]1O` yielded a Ki [1] of 0.05 µM, an IC50 (Beta-galactosidase) greater than 100 µM and an IC50 (Alpha-galactosidase) greater than 100 µM. The IC50 [2] was 3.32 µM, the IC50 [3] was 0.32 µM and the IC50 [4] was 14.4 µM. For the same compound, the fold change (FC) [5] was 1.17 and the Activity [6] was “Non-toxic”.
With `O=C(Nc1c(Cl)cccc1C(F)(F)F)O/N=C1\N[C@H](CO)[C@@H](O)[C@H](O)[C@H]1O` the Ki [1] was 12.3 µM, the IC50 (Beta-galactosidase) was greater than 100 µM and the IC50 (Alpha-galactosidase) was greater than 100 µM. The IC50 [2] was 23.5 µM, the IC50 [3] was 18.1 µM and the IC50 [4] was 5.82 µM. For the same compound, the fold change (FC) [5] was 1.32 and the Activity [6] was “Non-toxic”.
`O=C(Nc1c(F)cccc1F)O/N=C1\N[C@H](CO)[C@@H](O)[C@H](O)[C@H]1O` gave a Ki [1] of 17.4 µM, an IC50 (Beta-galactosidase) greater than 100 µM and an IC50 (Alpha-galactosidase) greater than 100 µM. It also gave an IC50 [2] of 21.9 µM, an IC50 [3] of 16.8 µM and an IC50 [4] of 7.59 µM. The fold change (FC) [5] was 1.35 and the Activity [6] was “Non-toxic”.
With `CSc1ccc(NC(=O)O/N=C2\N[C@H](CO)[C@@H](O)[C@H](O)[C@H]2O)cc1` the Ki [1] was 8.12 µM, the IC50 (Beta-galactosidase) was greater than 100 µM and the IC50 (Alpha-galactosidase) was greater than 100 µM. The IC50 [2] was 17.2 µM, the IC50 [3] was 9.15 µM and the IC50 [4] was 8.38 µM. The fold change (FC) [5] was 1.19 and the Activity [6] was “Non-toxic”.
For `O=C(Nc1ccccc1)O/N=C1\N[C@H](CO)[C@@H](O)[C@H](O)[C@H]1O`, the Ki [1] was 11.5 µM, the IC50 (Beta-galactosidase) was greater than 100 µM and the IC50 (Alpha-galactosidase) was greater than 100 µM. It also gave an IC50 [2] of 19.3 µM, an IC50 [3] of 12.5 µM and an IC50 [4] of 31.1 µM. For the same compound, the fold change (FC) [5] was 1.49 and the Activity [6] was “Non-toxic”.
For `CCCCCCCCCCCCNC(=O)O/N=C1\N[C@H](CO)[C@@H](O)[C@H](O)[C@H]1O`, the Ki [1] was 0.14 µM, the IC50 (Beta-galactosidase) was greater than 100 µM and the IC50 (Alpha-galactosidase) was greater than 100 µM. For the same compound, the IC50 [2] was 5.74 µM, the IC50 [3] was 0.7 µM and the IC50 [4] was greater than 100 µM. For the same compound, the fold change (FC) [5] was 1.93 and the Activity [6] was “Non-toxic”.
For `O=C(NC12CC3CC(CC(C3)C1)C2)O/N=C1\N[C@H](CO)[C@@H](O)[C@H](O)[C@H]1O`, the Ki [1] was 1.52 µM, the IC50 (Beta-galactosidase) was greater than 100 µM and the IC50 (Alpha-galactosidase) was greater than 100 µM. For the same compound, the IC50 [2] was 8.37 µM, the IC50 [3] was 1.85 µM and the IC50 [4] was 14.4 µM. The fold change (FC) [5] was 1.35 and the Activity [6] was “Non-toxic”.
With `OC[C@H]1N/C(=N/O)[C@H](O)[C@@H](O)[C@@H]1O` the Activity [7] was “inactive”, the Ki [1] was 4.28 µM and the IC50 (Beta-galactosidase) was greater than 100 µM. For the same compound, the IC50 (Alpha-galactosidase) was greater than 100 µM, the IC50 [2] was 65.8 µM and the IC50 [3] was 5.84 µM. The IC50 [4] was 80.3 µM, the fold change (FC) [5] was 1.28 and the Activity [6] was “Non-toxic”.
For `O=C(Nc1cccs1)O/N=C1\N[C@H](CO)[C@@H](O)[C@H](O)[C@H]1O`, the Ki [1] was 0.64 µM, the IC50 (Beta-galactosidase) was greater than 100 µM and the IC50 (Alpha-galactosidase) was greater than 100 µM. The IC50 [2] was 13.2 µM, the IC50 [3] was 0.84 µM and the IC50 [4] was 2.68 µM. For the same compound, the fold change (FC) [5] was 1.36 and the Activity [6] was “Non-toxic”.
Work on `OC[C@H]1CNC[C@@H](O)[C@@H]1O` [AFEGOSTAT] yielded an IC50 (Beta-galactosidase) greater than 100 µM, an IC50 (Alpha-galactosidase) greater than 100 µM and an IC50 [4] greater than 100 µM. For the same compound, the fold change (FC) [5] was 1.38 and the Activity [6] was “Non-toxic”.
